In patent US4210749A, “Substituted 1,2,4,5-tetrahydro-3H,3 benzazepines” (priority 1979, dated 1980):
Counter-ions that a name gives are not always drawn.

What was measured:
[1] = test system: isolated segments of guinea pig ileum (histamine); assay: Antihistaminic activity: block of histamine in isolated segments of guinea pig ileum
[2] = test system: isolated segments of guinea pig ileum (acetylcholine); assay: Anticholinergic activity: block of acetylcholine in isolated segments of guinea pig ileum
[3] = I.P. symptomatology (highest tolerated dose, median lethal dose), Table IV; format: in vivo; conditions: in vivo, ip; for MTD: read-out: HTD (highest tolerated dose)
[4] = Narcotic antagonism I.P., Table IV; format: in vivo
sciatic block = assay: Local anesthetic sciatic block, Table IV; format: in vivo; conditions: 1%
[5] = Mouse tail stimulation (MST), Table IV; format: in vivo; parameters: unit not given here; conditions: S.C.
[6] = Analgesic activity, writhing method; format: in vivo; conditions: po
[7] = Analgesic activity, hot plate method; format: in vivo
in vivo [8] = assay: in vivo
in vivo [9] = assay: in vivo; remark: listed apart in the source

Compound	LD50 [3] [mg/kg]	MTD [3] [mg/kg]	Narcotic Antagonism [4]	Local Anesthetic Sciatic Block (sciatic block)	MST (mouse tail stimulation) [5]	further results
COc1ccc2c(c1)CCN(C(C)Cc1ccccc1)CC2 (racemic) [Example 26, 7-Methoxy-3-(1-methyl-2-phenylethyl)-1,2,4,5-tetrahydro-3H,3-benzazepine]	–	–	–	–	–	Conc. for 50% block of Histamine [1]: 54 μg/20 ml; Conc. for 50% block of Acetylcholine [2]: 94 μg/20 ml
CN1[C@@H]2CC[C@H]1C[C@@H](OC(=O)C(CO)c1ccccc1)C2 (stereo partly drawn) [Atropine, reference compound]	–	–	–	–	–	Conc. for 50% block of Histamine [1]: 37 μg/20 ml; Conc. for 50% block of Acetylcholine [2]: 0.0035 μg/20 ml
COc1ccc2c(c1)CCNCC2 [Example 1, 7-Methoxy-1,2,4,5-tetrahydro-3H,3-benzazepine]	60	3	Negative	Positive	> 3	–
CC(=O)Oc1ccc2c(c1)CCN(CC=C(C)C)CC2 [Example 5, 7-Acetoxy-3-(3,3-dimethylallyl)-1,2,4,5-tetrahydro-3H,3-benzazepine hydrochloride]	~200	~10	Positive	Positive	> 30	–
COc1ccc2c(c1)CCN(CC1CC1)CC2 [Example 7, 3-Cyclopropylmethyl-7-methoxy-1,2,4,5-tetrahydro-3H,3-benzazepine]	100	40	Negative	Positive	–	Conc. for 50% block of Histamine [1]: 20 μg/20 ml; Conc. for 50% block of Acetylcholine [2]: 220 μg/20 ml
Oc1ccc2c(c1)CCN(CCc1ccccc1)CC2 [Example 25, 7-Hydroxy-3-phenethyl-1,2,4,5-tetrahydro-3H,3-benzazepine]	–	–	–	–	–	ED50 [6]: > 178 mg/kg; ED50 ([7]; ip): 26 mg/kg; ED50 ([7]; po): > 178 mg/kg; NOAEL (in vivo [8]; po): 178 mg/kg; LD50 (in vivo [9]; po): > 1000 mg/kg
Oc1ccc2c(c1)CCN(CC=Cc1ccccc1)CC2 [Example 29, 7-Hydroxy-3-(3-phenylallyl)-1,2,4,5-tetrahydro-3H,3-benzazepine]	–	–	–	–	–	ED50 [6]: 210 mg/kg; ED50 ([7]; ip): 230 mg/kg; ED50 ([7]; po): > 1000 mg/kg; NOAEL (in vivo [8]; ip): 300 mg/kg; NOAEL (in vivo [8]; po): 1000 mg/kg; LD50 (in vivo [9]; po): > 1000 mg/kg
CC(C)=CCN1CCc2ccc(O)cc2CC1C (stereo not drawn) [Example 34, 3-(3,3-Dimethylallyl)-8-hydroxy-2-methyl-1,2,4,5-tetrahydro-3H,3-benzazepine hydrochloride]	60	10	Positive	Positive	> 40	–
COc1ccc2c(c1)CC(C)N(CCc1ccccc1)CC2 (stereo not drawn) [Example 36, 8-Methoxy-2-methyl-3-phenethyl-1,2,4,5-tetrahydro-3H,3-benzazepine hydrochloride]	60	10	Negative	Insoluble	10	–
C=CCN1CCc2ccc(OC)cc2CC1C (stereo not drawn) [Example 38, 3-Allyl-8-methoxy-2-methyl-1,2,4,5-tetrahydro-3H,3-benzazepine hydrochloride]	200	10	Positive	–	> 10	–
CC1Cc2cc(O)ccc2CCN1CC1CC1 (stereo not drawn) [Example 41, 3-Cyclopropylmethyl-8-hydroxy-2-methyl-1,2,4,5-tetrahydro-3H,3-benzezepine hydrochloride]	~60	~3	Negative	Positive	> 30	–
CC(C)=CCN1CCC2(C)c3cc(O)ccc3CC1C2C (stereo not drawn) [Pentazocine, reference compound]	–	–	–	–	–	ED50 [6]: 70 mg/kg; ED50 ([7]; ip): 100 mg/kg; ED50 ([7]; po): > 316 mg/kg; NOAEL (in vivo [8]; ip): 316 mg/kg; NOAEL (in vivo [8]; po): 316 mg/kg; LD50 (in vivo [9]; ip): > 600 mg/kg; LD50 (in vivo [9]; po): ~800 mg/kg
